Patent US20260265246A1 (ICAHN SCHOOL OF MEDICINE AT MOUNT SINAI, priority 2021, published 2026)
Read-outs that look alike come from different tables or passages of the source.

Assays:
5HT2A receptor [1] = molecular target: T1, 5HT2A receptor (Homo sapiens, UniProt P28223); experiment: biochemical; type: binding; set-up: expressed in transfected cells; crude membranes
5HT2A receptor [2] = molecular target: T1, 5HT2A receptor; experiment: cell-based; set-up: expressed in transfected cells; host or cells: HEK293T cells, transient co-transfection; settings: for Emax: HEK-293T
5HT2A receptor [3] = molecular target: T1, 5HT2A receptor; experiment: cell-based; set-up: expressed in transfected cells; host or cells: HEK293T cells, transient co-transfection; settings: for Emax: HEK-293T; remark: listed apart in the source
[4] = 5HT2A Ki (nM), secondary radioligand binding, Ki from IC50 by Cheng-Prusoff
[5] = 5HT2A Gq EC50 (nM), BRET2 Gαq dissociation, HEK293T cells
[6] = 5HT2A β-Arr EC50 (nM), BRET1 beta-arrestin2 recruitment, HEK293T cells
[7] = 5HT2A Ki (nM), secondary binding assay, Cheng-Prusoff
[8] = BRET2 Gαq dissociation, HEK293T, normalized to 5-HT
[9] = 5HT2A β-Arr EC50 (nM), BRET1 beta-arrestin2 recruitment, HEK293T
[10] = BRET1 beta-arrestin2 recruitment, HEK293T, normalized to 5-HT
[11] = BRET2 Gαq dissociation, HEK293T, read-out: 5HTA Gq EC50
[12] = BRET2 Gαq dissociation, HEK293T cells, normalized to 5-HT, read-out: 5HT2A Gq Emax (%)
[13] = BRET1 beta-arrestin2 recruitment, HEK293T cells, normalized to 5-HT, read-out: 5HT2A β-Arr Emax (%)
[14] = secondary radioligand binding, Ki from IC50 by Cheng-Prusoff, read-out: 5HT2A Ki
[15] = BRET2 Gαq dissociation, HEK293T cells, read-out: 5HT2A Gq EC50
[16] = BRET1 beta-arrestin2 recruitment, HEK293T cells, read-out: 5HT2A β-Arr EC50

T1 sequence (P28223 whole entry): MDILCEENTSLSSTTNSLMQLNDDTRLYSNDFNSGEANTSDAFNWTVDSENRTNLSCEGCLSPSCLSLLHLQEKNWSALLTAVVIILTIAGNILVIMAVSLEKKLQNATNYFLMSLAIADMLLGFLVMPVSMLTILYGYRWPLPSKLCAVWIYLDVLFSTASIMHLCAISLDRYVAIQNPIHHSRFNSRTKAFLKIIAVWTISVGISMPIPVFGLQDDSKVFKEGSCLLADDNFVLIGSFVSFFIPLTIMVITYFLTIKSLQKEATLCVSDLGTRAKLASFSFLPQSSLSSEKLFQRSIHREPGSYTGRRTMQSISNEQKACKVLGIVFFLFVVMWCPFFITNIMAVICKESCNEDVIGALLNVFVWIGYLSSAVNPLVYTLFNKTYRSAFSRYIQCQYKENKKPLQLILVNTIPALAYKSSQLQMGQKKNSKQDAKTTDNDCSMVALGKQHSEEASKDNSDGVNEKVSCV

| SMILES | Ki (5HT2A receptor [1]; [4]) | EC50 (5HT2A receptor [2]; [5]) | EC50 (5HT2A receptor [3]; [6]) | Emax (5HT2A receptor [2]; [12]) | Emax (5HT2A receptor [3]; [13]) | Ki (5HT2A receptor [1]; [14]) | EC50 (5HT2A receptor [2]; [15]) | EC50 (5HT2A receptor [3]; [16]) | further results |
| --- | --- | --- | --- | --- | --- | --- | --- | --- | --- |
| CN1CCCC(c2c[nH]c3c(Cl)cccc23)C1 (single isomer, unassigned) [Example 113, 7-chloro-3-(1-methylpiperidin-3-yl)-1H-indole] | 1430 nM | 279 nM | 1520 nM |  |  |  |  |  | Emax (5HT2A receptor [2]; read-out: 5HT2A Gq Emax (%), BRET2 Gαq dissociation, HEK293T cells, normalized to 5-HT): 84.9%; Emax (5HT2A receptor [3]; read-out: 5HT2A β-Arr Emax (%), BRET1 beta-arrestin2 recruitment, HEK293T cells, normalized to 5-HT): 62.6% |
| Clc1cccc2c(C34CNCC3C4)n[nH]c12 (single isomer, unassigned) [Example 273, 3-(3-azabicyclo[3.1.0]hexan-1-yl)-7-chloro-1H-indazole] |  |  |  |  |  |  |  |  | Ki (5HT2A receptor [1]; [7]): 6300 nM; EC50 (5HT2A receptor [2]; 5HTA Gq EC50 (nM), BRET2 Gαq dissociation, HEK293T): 226 nM; 5HTA Gq Emax (%) (5HT2A receptor [2]; [8]): 81.0%; EC50 (5HT2A receptor [3]; [9]): 1300 nM; 5HT2A β-Arr Emax (%) (5HT2A receptor [3]; [10]): 20.73% |
| Clc1cccc2c(C34CNCC3C4)n[nH]c12 (single isomer, unassigned) [Example 274, 3-(3-azabicyclo[3.1.0]hexan-1-yl)-7-chloro-1H-indazole] |  |  |  |  |  |  |  |  | Ki (5HT2A receptor [1]; [7]): 1580 nM; 5HTA Gq Emax (%) (5HT2A receptor [2]; [8]): 117.2%; EC50 (5HT2A receptor [2]; [11]): 61.5 nM; EC50 (5HT2A receptor [3]; [9]): 733 nM; 5HT2A β-Arr Emax (%) (5HT2A receptor [3]; [10]): 50.96% |
| Clc1cccc2c(C34CNCC3C4)c[nH]c12 (single isomer, unassigned) [Example 277, 3-(3-azabicyclo[3.1.0]hexan-1-yl)-7-chloro-1H-indole] |  |  |  |  |  |  |  |  | Ki (5HT2A receptor [1]; secondary binding assay, Cheng-Prusoff, read-out: 5HT2A Ki): 80.5 nM; 5HTA Gq Emax (%) (5HT2A receptor [2]; [8]): 86.5%; EC50 (5HT2A receptor [2]; [11]): 83.8 nM; EC50 (5HT2A receptor [3]; [9]): 212 nM; Emax (5HT2A receptor [3]; BRET1 beta-arrestin2 recruitment, HEK293T, normalized to 5-HT, read-out: 5HT2A β-Arr Emax (%)): 25.4% |
| COc1cnc2[nH]cc(C3=CCCNC3)c2c1 [Example 2, 5-methoxy-3-(1,2,5,6-tetrahydropyridin-3-yl)-1H-pyrrolo[2,3-b]pyridine] | 294 nM | 135 nM | 1040 nM | 73.7% | 61.6% |  |  |  |  |
| Clc1cnc2[nH]cc(C3=CCCNC3)c2c1 [Example 3, 5-chloro-3-(1,2,5,6-tetrahydropyridin-3-yl)-1H-pyrrolo[2,3-b]pyridine] | 143 nM | 29.4 nM | 229 nM | 82% | 43.8% |  |  |  |  |
| COc1cnc2[nH]cc(C3=CCCN(C)C3)c2c1 [Example 6, 5-methoxy-3-(1-methyl-1,2,5,6-tetrahydropyridin-3-yl)-1H-pyrrolo[2,3-b]pyridine] | 695 nM | 44.1 nM | 792 nM | 65.9% | 33.4% |  |  |  |  |
| CN1CCC=C(c2c[nH]c3ncc(Cl)cc23)C1 [Example 7, 5-chloro-3-(1-methyl-1,2,5,6-tetrahydropyridin-3-yl)-1H-pyrrolo[2,3-b]pyridine] | 209 nM | 56.9 nM | 18.7 nM | 73.4% | 20.7% |  |  |  |  |
| CN1CCC=C(c2c[nH]c3ncc(-c4ccccc4)cc23)C1 [Example 8, 3-(1-methyl-1,2,5,6-tetrahydropyridin-3-yl)-5-phenyl-1H-pyrrolo[2,3-b]pyridine] | 156 nM | 67 nM | 811 nM | 95.5% | 58.3% |  |  |  |  |
| Cc1ccnc2[nH]cc(C3=CCCNC3)c12 [Example 9, 4-methyl-3-(1,2,5,6-tetrahydropyridin-3-yl)-1H-pyrrolo[2,3-b]pyridine] | 8510 nM | 489 nM | 749 nM | 74.2% | 72.8% |  |  |  |  |
| Clc1ccnc2[nH]cc(C3=CCCNC3)c12 [Example 11, 4-chloro-3-(1,2,5,6-tetrahydropyridin-3-yl)-1H-pyrrolo[2,3-b]pyridine] | 273 nM | 79.9 nM | 904 nM | 84.7% | 43.7% |  |  |  |  |
| Cc1ccnc2[nH]cc(C3=CCCN(C)C3)c12 [Example 13, 4-methyl-3-(1-methyl-1,2,5,6-tetrahydropyridin-3-yl)-1H-pyrrolo[2,3-b]pyridine] |  |  |  | 68.7% | 38.9% | 63.5 nM | 106 nM | 765 nM |  |
| COc1ccnc2[nH]cc(C3=CCCN(C)C3)c12 [Example 14, 4-methoxy-3-(1-methyl-1,2,5,6-tetrahydropyridin-3-yl)-1H-pyrrolo[2,3-b]pyridine] |  |  |  | 67.1% | 32.2% | 43 nM | 72.7 nM | 74.1 nM |  |
| CN1CCC=C(c2c[nH]c3nccc(Cl)c23)C1 [Example 15, 4-chloro-3-(1-methyl-1,2,5,6-tetrahydropyridin-3-yl)-1H-pyrrolo[2,3-b]pyridine] | 465 nM | 23.5 nM | 683 nM | 68.8% | 31.5% |  |  |  |  |
| Cc1cccc2[nH]cc(C3=CCCNC3)c12 [Example 17, 4-methyl-3-(1,2,5,6-tetrahydropyridin-3-yl)-1H-indole] |  |  |  | 85.7% | 42% | 11.5 nM | 22 nM | 147 nM |  |
| COc1cccc2[nH]cc(C3=CCCNC3)c12 [Example 18, 4-methoxy-3-(1,2,5,6-tetrahydropyridin-3-yl)-1H-indole] |  |  |  | 96.1% | 51.8% | 50.5 nM | 3.9 nM | 71.2 nM |  |
| Cc1cccc2[nH]cc(C3=CCCN(C)C3)c12 [Example 19, 4-methyl-3-(1-methyl-1,2,5,6-tetrahydropyridin-3-yl)-1H-indole] | 136 nM |  | 102 nM | 75.9% | 40.4% |  | 9 nM |  |  |
| COc1cccc2[nH]cc(C3=CCCN(C)C3)c12 [Example 20, 4-methoxy-3-(1-methyl-1,2,5,6-tetrahydropyridin-3-yl)-1H-indole] |  |  |  | 91% | 47.7% | 60 nM | 3 nM | 61.8 nM |  |
| CN1CCC=C(c2c[nH]c3cccc(-c4ccccc4)c23)C1 [Example 21, 3-(1-methyl-1,2,5,6-tetrahydropyridin-3-yl)-4-phenyl-1H-indole] | 14 nM | 874 nM | 358 nM | 59.6% | 15.1% |  |  |  |  |
| Clc1ccc2[nH]cc(C3=CCCNC3)c2c1 [Example 22, 5-chloro-3-(1,2,5,6-tetrahydropyridin-3-yl)-1H-indole] |  |  |  | 102% | 77.3% | 44.3 nM | 7.2 nM | 78.4 nM |  |
| CC(C)c1ccc2[nH]cc(C3=CCCNC3)c2c1 [Example 23, 5-isopropyl-3-(1,2,5,6-tetrahydropyridin-3-yl)-1H-indole] |  |  |  | 58.8% | 31.4% | 98.6 nM | 65.7 nM | 735 nM |  |
| Clc1ccc2c(C3=CCCNC3)c[nH]c2c1 [Example 31, 6-chloro-3-(1,2,5,6-tetrahydropyridin-3-yl)-1H-indole] | 160 nM | 106 nM | 1500 nM | 93% | 112% |  |  |  |  |
| CN1CCC=C(c2c[nH]c3cc(Cl)ccc23)C1 [Example 32, 6-chloro-3-(1-methyl-1,2,5,6-tetrahydropyridin-3-yl)-1H-indole] | 236 nM | 304 nM | 709 nM | 77.5% | 45.5% |  |  |  |  |
| Cc1cccc2c(C3=CCCNC3)c[nH]c12 [Example 41, 7-methyl-3-(1,2,5,6-tetrahydropyridin-3-yl)-1H-indole] | 1380 nM | 234 nM | 1410 nM | 92.6% | 83.2% |  |  |  |  |
| CN1CCC=C(c2c[nH]c3c(Cl)cccc23)C1 [Example 44, 7-chloro-3-(1-methyl-1,2,5,6-tetrahydropyridin-3-yl)-1H-indole] |  |  |  | 86.6% | 37.6% | 76.3 nM | 18.9 nM | 78.8 nM |  |
| C1=C(c2n[nH]c3ccccc23)CNCC1 [Example 45, 3-(1,2,5,6-tetrahydropyridin-3-yl)-1H-indazole] | 113 nM |  | 138 nM | 98.3% | 68.1% |  |  |  |  |
| CN1CCC=C(c2n[nH]c3ccccc23)C1 [Example 46, 3-(1-methyl-1,2,5,6-tetrahydropyridin-3-yl)-1H-indazole] |  |  | 115 nM | 62.6% | 21.9% | 87.3 nM | 3.3 nM |  |  |
| CCc1cccc2c(C3=CCCNC3)c[nH]c12 [Example 50, 7-ethyl-3-(1,2,5,6-tetrahydropyridin-3-yl)-1H-indole] | 244 nM |  |  | 92.6% | 79.1% |  | 4.7 nM | 67 nM |  |
| CCc1cccc2c(C3=CCCN(C)C3)c[nH]c12 [Example 52, 7-ethyl-3-(1-methyl-1,2,5,6-tetrahydropyridin-3-yl)-1H-indole] |  |  | 880 nM | 89.3% | 73.4% | 42 nM | 25 nM |  |  |
